This assay concerns Leishmania donovani. The experiment in a line: Inhibition of 2 units of Leishmania donovani MHOM/IN/1978/UR6 DNA topoisomerase 1-mediated supercoiled pGEM4Z DNA relaxation at 5 to 10 uM preincubated for 10 mins prior to DNA addition by agarose gel electrophoresis.

Calls of active or inactive are those of the source. The rule behind the calls is not given here.

Turning to `CC[C@@]1(O)C(=O)OCc2c1cc1n(c2=O)Cc2cc3ccccc3nc2-1`, the outcome was Active.

For the origin of these results see ChEMBL document CHEMBL1151672, “Amarogentin, a naturally occurring secoiridoid glycoside and a newly recognized inhibitor of topoisomerase I from Leishmania donovani” (J Nat Prod, 1996).
